This is an account of results in US9994594B2, “Inhibitors of arginase and their therapeutic applications” (MARS, INCORPORATED, priority 2010, dated 2018).

SMILES strings stand for the structures. Counter-ions that a name gives are not always drawn.

The target of one test is T1, human arginase I (ARG I) (Homo sapiens, UniProt P05089).
T1 sequence (P05089 1-322): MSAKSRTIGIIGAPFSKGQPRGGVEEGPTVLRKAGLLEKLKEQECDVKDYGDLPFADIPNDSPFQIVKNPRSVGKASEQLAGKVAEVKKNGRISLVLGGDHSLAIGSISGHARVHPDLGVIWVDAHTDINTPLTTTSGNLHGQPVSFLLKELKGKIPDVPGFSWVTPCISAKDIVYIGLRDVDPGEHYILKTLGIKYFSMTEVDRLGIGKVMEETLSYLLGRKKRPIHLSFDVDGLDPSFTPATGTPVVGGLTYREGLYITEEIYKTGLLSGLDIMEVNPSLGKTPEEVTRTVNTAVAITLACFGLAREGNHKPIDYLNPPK
As to the kind of experiment: Inhibition of arginase I, spectrophotometric urea assay at 530 nm. In kind it is biochemical. The settings on record: Formula II compounds, Table 2-A; read-out: Potency (ARG I). How it is done:
(§1) The assay established the concentration of inhibitor that is required to reduce arginase activity by 50% (IC50).
(§2) Inhibition of arginase I (ARG I) and arginase II (ARG II) by Formula I and Formula II compounds is followed spectrophotometrically at 530 nm. The compound to be tested is dissolved in DMSO at an initial concentration 50-fold greater than its final concentration in the cuvette. 10 μl of the stock solution is diluted in 90 μl of the assay buffer that comprises 0.1M sodium phosphate buffer containing 130 mM NaCl, pH 7.4, to which is added ovalbumin (OVA) at a concentration of 1 mg/ml. Solutions of arginase I and II are prepared in 100 mM sodium phosphate buffer, pH 7.4 containing 1 mg/ml of OVA to give an arginase stock solution at a final concentration of 100 ng/ml.
(§3) To each well of a 96-well microtiter plate is add 40 μl of enzyme, 10 μl of an inventive compound and 10 μl of enzyme substrate (L-arginine+manganese sulfate). For wells that are used as positive controls, only the enzyme and its substrate are added, while wells used as negative controls contain only manganese sulfate.
(§4) After incubating the microtiter plate at 37° C. for 60 minutes, 150 μl of a urea reagent obtained by combining equal proportions (1:1) of reagents A and B is added to each well of the microtiter plate to stop the reaction. The urea reagent is made just before use by combining Reagent A (10 mM o-phthaldialdehyde, and 0.4% polyoxyethylene (23) lauryl ether (w/v) in 1.8 M sulfuric acid) with Reagent B (1.3 mM primaquine diphosphate, 0.4% polyoxyethylene (23) lauryl ether (w/v), 130 mM boric acid in 3.6 M sulfuric acid). After quenching the reaction mixture, the microtiter plate is allowed to stand for an additional 10 minutes at room temperature to allow color development. The inhibition of arginase is computed by measuring the optical density (OD) of the reaction mixture at 530 nm and normalizing the OD value to percent inhibition observed in the control. The normalized OD is then used to generate a dose-response curve by plotting the normalized OD values against log [concentration] and using regression analysis to compute the IC50 values.

The next test has as its target T2, arginase II (ARG II) (Homo sapiens, UniProt P78540).
T2 sequence (P78540 23-354): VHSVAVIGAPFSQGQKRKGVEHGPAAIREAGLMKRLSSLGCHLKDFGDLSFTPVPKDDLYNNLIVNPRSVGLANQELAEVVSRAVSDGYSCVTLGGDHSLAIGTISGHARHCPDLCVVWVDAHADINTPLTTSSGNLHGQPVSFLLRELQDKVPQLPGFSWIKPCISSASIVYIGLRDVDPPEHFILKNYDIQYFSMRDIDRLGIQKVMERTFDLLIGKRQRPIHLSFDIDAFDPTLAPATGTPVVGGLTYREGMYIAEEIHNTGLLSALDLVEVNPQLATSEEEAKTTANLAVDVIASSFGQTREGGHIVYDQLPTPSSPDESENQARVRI
Description: Inhibition of arginase II, spectrophotometric urea assay at 530 nm. It counts as biochemical. The note with it: Formula II compounds, Table 2-A; read-out: Potency (ARG). How it is done:
as §1, §2, §3, §4

With `NC(CCCCB(O)O)(C(=O)O)C1CCN(C(=S)NCc2ccc(Cl)cc2)CC1` (centres unmarked) [Example 43-A, 2-amino-6-borono-2-(1-(4-chlorobenzylcarbamothioyl)piperidin-4-yl)hexanoic acid], the IC50 was in the range of 251 to 1000 nM at human arginase I (ARG I) and 1000 to 2000 nM at arginase II (ARG II).
Regarding `Cc1ccc(NC(=S)N2CCC(C(N)(CCCCB(O)O)C(=O)O)CC2)cc1Cl` (centres unmarked) [Example 44-A, 2-amino-6-borono-2-(1-(3-chloro-4-methylphenylcarbamothioyl)piperidin-4-yl)hexanoic acid], the values for the IC50 at human arginase I (ARG I) and at arginase II (ARG II) were 251 to 1000 nM and 1000 to 2000 nM, respectively.
On to `NC(CCCCB(O)O)(C(=O)O)C1CCN(C(=S)Nc2cccc3ccccc23)CC1` (centres unmarked) [Example 45-A, 2-amino-6-borono-2-(1-(naphthalen-1-ylcarbamothioyl)piperidin-4-yl)hexanoic acid], for which the IC50 fell in the range of 251 to 1000 nM at human arginase I (ARG I) and 1000 to 2000 nM at arginase II (ARG II).
`NC(CCCCB(O)O)(C(=O)O)C1CCN(CCCc2ccc(Cl)cc2)CC1` (centres unmarked) [Example 46-A, 2-amino-6-borono-2-(1-(3-(4-chlorophenyl)propyl)piperidin-4-yl)hexanoic acid]: the IC50 on human arginase I (ARG I) and on arginase II (ARG II) was 0.1 to 250 nM throughout.
With `NC(CCCCB(O)O)(C(=O)O)C1CCN(CCc2ccc(Cl)cc2Cl)CC1` (centres unmarked) [Example 47-A, 2-amino-6-borono-2-(1-(2,4-dichlorophenethyl)piperidin-4-yl)hexanoic acid], the IC50 on human arginase I (ARG I) is 0.1 to 250 nM; on arginase II (ARG II), 251 to 1000 nM.
Consider `NC(CCCCB(O)O)(C(=O)O)C1CCN(Cc2ccc(F)c(F)c2)CC1` (centres unmarked) [Example 48-A, 2-amino-6-borono-2-(1-(3,4-difluorobenzyl)piperidin-4-yl)hexanoic acid], for which the IC50 on human arginase I (ARG I) lay within 0.1 to 250 nM; at arginase II (ARG II) it was 251 to 1000 nM.
For `NC(CCCCB(O)O)(C(=O)O)C1CCN(Cc2ccc(Cl)c(F)c2)CC1` (centres unmarked) [Example 49-A, 2-amino-6-borono-2-(1-(4-chloro-3-fluorobenzyl)piperidin-4-yl)hexanoic acid], the IC50 on human arginase I (ARG I) was in the range of 251 to 1000 nM; at arginase II (ARG II) it was 0.1 to 250 nM.
As for `NC(CCCCB(O)O)(C(=O)O)C1CCN(CCCc2cc(F)cc(Cl)c2)CC1` (centres unmarked) [Example 50-A, 2-amino-6-borono-2-(1-(3-(3-chloro-5-fluorophenyl)propyl)piperidin-4-yl)hexanoic acid], the IC50 at human arginase I (ARG I) lay in the range of 0.1 to 250 nM; on arginase II (ARG II) it was 251 to 1000 nM.
For `NC(CCCCB(O)O)(C(=O)O)C1CCN(Cc2ccc(F)c3ccccc23)CC1` (centres unmarked) [Example 51-A, 2-amino-6-borono-2-(1-((4-fluoronaphthalen-1-yl)methyl)piperidin-4-yl)hexanoic acid] the same measures were 0.1 to 250 nM and 251 to 1000 nM.
With `NC(CCCCB(O)O)(C(=O)O)C1CCN(CCCc2ccc(F)cc2F)CC1` (centres unmarked) [Example 52-A, 2-amino-6-borono-2-(1-(3-(2,4-difluorophenyl)propyl)piperidin-4-yl)hexanoic acid dihydrochloride], the IC50 on human arginase I (ARG I) and on arginase II (ARG II) was 0.1 to 250 nM throughout.
For `NC(CCCCB(O)O)(C(=O)O)C1CCN(Cc2ccccc2C(F)(F)F)CC1` (centres unmarked) [Example 53-A, 2-amino-6-borono-2-(1-(2-(trifluoromethyl)benzyl)piperidin-4-yl)hexanoic acid dihydrochloride], the IC50 on human arginase I (ARG I) and on arginase II (ARG II) was 251 to 1000 nM throughout.
For the compound `NC(CCCCB(O)O)(C(=O)O)C1CCN(Cc2ccccc2N2CCOCC2)CC1` (centres unmarked) [Example 54-A, 2-amino-6-borono-2-(1-(2-morpholinobenzyl)piperidin-4-yl)hexanoic acid dihydrochloride], the IC50 on human arginase I (ARG I) was 0.1 to 250 nM; on arginase II (ARG II), 251 to 1000 nM.
Consider `NC(CCCCB(O)O)(C(=O)O)C1CCN(Cc2ccccc2-c2ccccc2)CC1` (centres unmarked) [Example 55-A, 2-amino-2-(1-(biphenyl-2-ylmethyl)piperidin-4-yl)-6-boronohexanoic acid dihydrochloride], for which the IC50 at human arginase I (ARG I) and on arginase II (ARG II) was 0.1 to 250 nM in each case.
